# Test results reported in PMC12649549, “Sequence Permutation Generated Lysine and Tryptophan-Rich Antimicrobial Peptides with Enhanced Therapeutic Index” (Antibiotics, 2025).
# Where two headings read alike, the source gives them in different places.
# Key:
# [1] = tested on: Both Gram-positive and -negative bacteria; experiment: Geometric mean MIC, therapeutic index and fold changes of MIC, whole panel of strains; assay type: cell-based; conditions: for weakening of antibacterial efficacy (MIC): LYM broth
# Outline: (§1)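 Therapeutic index taken as the ratio of HC10 on human erythrocytes to geometric mean MIC. MICs from CLSI broth microdilution with peptides at 50 down to 0.78 µg/mL, inoculum 5 × 10^5 CFU/mL, in MH or modified LYM broth; triplicate independent experiments.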
# [2] = tested on: A. baumannii 14B00100 (Acinetobacter sp., BCRC number 14B0100)
# Outline: (§2)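 MICs came from CLSI broth microdilution, with 5 × 10^5 CFU/mL bacteria exposed to peptide at final 0.78–50 µg/mL. Media were MH broth or LYM broth (pH 7.4), the latter also adjusted for salt (NaCl 50–300 mM, MgCl2 0.5–2.5 mM) or acidity (pH 4.5–6.5); triplicate independent experiments.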
# [3] = tested on: Pseudomonas aeruginosa Migula (ATCC 27853)
# Outline: as §2
# [4] = tested on: A. baumannii 14B0091 (Acinetobacter sp., BCRC number 14B0091)
# Outline: as §2
# [5] = tested on: S. aureus ATCC 33591
# Outline: as §2
# [6] = tested on: S. aureus ATCC 33593
# Outline: as §2
# [7] = tested on: Escherichia coli (ATCC 25922)
# Outline: as §2
# [8] = tested on: Gram-negative bacteria; experiment: Geometric mean MIC and therapeutic index, Gram-negative bacteria; assay type: cell-based; conditions: Gram-negative bacteria
# Outline: as §1
# [9] = LYM broth, 0 mM NaCl, 16 h, 37 °C
# [10] = LYM broth, 50 mM NaCl, 16 h, 37 °C
# [11] = LYM broth, 100 mM NaCl, 16 h, 37 °C
# [12] = LYM broth, 200 mM (NaCl), 16 h, 37 °C
# [13] = LYM broth, 300 mM (NaCl), 16 h, 37 °C
# [14] = MH broth, 5 × 10^5 CFU/mL, 16 h, 37 °C, repeated three times
substance,measurement,setting,value
Ac-KKWRKWLKWLAKK-NH2 [W5K/A9W],GM G−/+ (geometric mean of the MIC values),"[1]; Both Gram-positive and -negative bacteria, MH broth, MIC >50 µg/mL counted as 100 µg/mL",4.1 µg/mL
same,Therapeutic Index (TI) G−/+,"[1]; HC10/GM, both Gram-positive and -negative bacteria",7.3
same,weakening of antibacterial efficacy (MIC),[1]; 300 mM NaCl,up to 4 fold
same,weakening of antibacterial efficacy (MIC),[1]; MgCl2 rising above 0.5 mM,up to 2 fold
same,MIC,[2]; [9],1.56 µg/mL
same,MIC,"[2]; LYM broth, 0.5 mM MgCl2",1.56 µg/mL
same,MIC,"[2]; LYM broth, 1.5 mM MgCl2",1.56 µg/mL
same,MIC,"[2]; LYM broth, 2.5 mM MgCl2",1.56 µg/mL
same,MIC,[2]; [10],1.56 µg/mL
same,MIC,[2]; [11],1.56 µg/mL
same,MIC,[2]; [12],1.56 µg/mL
same,MIC,[2]; [13],1.56 µg/mL
same,MIC,"[2]; LYM broth, pH 4.5",1.56 µg/mL
same,MIC,"[2]; LYM broth, pH 5.5",1.56 µg/mL
same,MIC,"[2]; LYM broth, pH 6.5",1.56 µg/mL
same,MIC,[2]; [14],1.56 µg/mL
same,MIC,[3]; [9],1.56 µg/mL
same,MIC,"[3]; LYM broth, 0.5 mM MgCl2",1.56 µg/mL
same,MIC,"[3]; LYM broth, 1.5 mM MgCl2",3.13 µg/mL
same,MIC,"[3]; LYM broth, 2.5 mM MgCl2",3.13 µg/mL
same,MIC,[3]; [10],1.56 µg/mL
same,MIC,[3]; [11],1.56 µg/mL
same,MIC,[3]; [12],3.13 µg/mL
same,MIC,[3]; [13],6.25 µg/mL
same,MIC,"[3]; LYM broth, pH 4.5",1.56 µg/mL
same,MIC,"[3]; LYM broth, pH 5.5",1.56 µg/mL
same,MIC,"[3]; LYM broth, pH 6.5",1.56 µg/mL
same,MIC,[3]; [14],3.13 µg/mL
same,MIC,[4]; [9],1.56 µg/mL
same,MIC,"[4]; LYM broth, 0.5 mM MgCl2",1.56 µg/mL
same,MIC,"[4]; LYM broth, 1.5 mM MgCl2",1.56 µg/mL
same,MIC,"[4]; LYM broth, 2.5 mM MgCl2",1.56 µg/mL
same,MIC,[4]; [10],1.56 µg/mL
same,MIC,[4]; [11],1.56 µg/mL
same,MIC,[4]; [12],1.56 µg/mL
same,MIC,[4]; [13],1.56 µg/mL
same,MIC,"[4]; LYM broth, pH 4.5",1.56 µg/mL
same,MIC,"[4]; LYM broth, pH 5.5",1.56 µg/mL
same,MIC,"[4]; LYM broth, pH 6.5",1.56 µg/mL
same,MIC,[4]; [14],1.56 µg/mL
same,MIC,[5]; [9],3.13 µg/mL
same,MIC,"[5]; LYM broth, 0.5 mM MgCl2",3.13 µg/mL
same,MIC,"[5]; LYM broth, 1.5 mM MgCl2",3.13 µg/mL
same,MIC,"[5]; LYM broth, 2.5 mM MgCl2",3.13 µg/mL
same,MIC,[5]; [10],3.13 µg/mL
same,MIC,[5]; [11],6.25 µg/mL
same,MIC,[5]; [12],6.25 µg/mL
same,MIC,[5]; [13],12.5 µg/mL
same,MIC,"[5]; LYM broth, pH 4.5",3.13 µg/mL
same,MIC,"[5]; LYM broth, pH 5.5",3.13 µg/mL
same,MIC,"[5]; LYM broth, pH 6.5",3.13 µg/mL
same,MIC,[5]; [14],12.5 µg/mL
same,MIC,[6]; [9],3.13 µg/mL
same,MIC,"[6]; LYM broth, 0.5 mM MgCl2",3.13 µg/mL
same,MIC,"[6]; LYM broth, 1.5 mM MgCl2",3.13 µg/mL
same,MIC,"[6]; LYM broth, 2.5 mM MgCl2",3.13 µg/mL
same,MIC,[6]; [10],3.13 µg/mL
same,MIC,[6]; [11],3.13 µg/mL
same,MIC,[6]; [12],6.25 µg/mL
same,MIC,[6]; [13],12.5 µg/mL
same,MIC,"[6]; LYM broth, pH 4.5",3.13 µg/mL
same,MIC,"[6]; LYM broth, pH 5.5",3.13 µg/mL
same,MIC,"[6]; LYM broth, pH 6.5",3.13 µg/mL
same,MIC,[6]; [14],12.5 µg/mL
same,MIC,[7]; [9],1.56 µg/mL
same,MIC,"[7]; LYM broth, 0.5 mM MgCl2",3.13 µg/mL
same,MIC,"[7]; LYM broth, 1.5 mM MgCl2",3.13 µg/mL
same,MIC,"[7]; LYM broth, 2.5 mM MgCl2",6.25 µg/mL
same,MIC,[7]; [10],1.56 µg/mL
same,MIC,[7]; [11],3.13 µg/mL
same,MIC,[7]; [12],3.13 µg/mL
same,MIC,[7]; [13],12.5 µg/mL
same,MIC,"[7]; LYM broth, pH 4.5",1.56 µg/mL
same,MIC,"[7]; LYM broth, pH 5.5",1.56 µg/mL
same,MIC,"[7]; LYM broth, pH 6.5",1.56 µg/mL
same,MIC,[7]; [14],3.13 µg/mL
same,GM G− (geometric mean of the MIC values),"[8]; MH broth, MIC >50 µg/mL counted as 100 µg/mL",2.1 µg/mL
same,Therapeutic Index (TI) G−,[8]; HC10/GM,14.5
